From USRE38132E1, “Phenylpyrrolidines, phenylimidazolidines,3-phenyl-1,3-oxizolidines and 3-phenyl-1,3-thiazolidines and their use in the treatment of inflammatory disease” (Boehringer Ingelheim Pharmaceuticals, Inc., priority 1997, dated 2003)
Like-named read-outs stand apart in the source and are kept apart here.

Legend:
[1] = biological target: T1, interaction of ICAM-1 with the Leukointegrin CD18/CD11a (LFA-1) (Homo sapiens, UniProt P05107+P20701); experiment: Assay to determine inhibition of LFA-1 binding to ICAM-1 (immunopurified LFA-1 on plate-bound sICAM-1, ELISA readout)
T1 construct: endogenous in cells; sICAM-1: made in house, secreted from transfected CHO DUX cells
T1 sequence (P20701 26-1170): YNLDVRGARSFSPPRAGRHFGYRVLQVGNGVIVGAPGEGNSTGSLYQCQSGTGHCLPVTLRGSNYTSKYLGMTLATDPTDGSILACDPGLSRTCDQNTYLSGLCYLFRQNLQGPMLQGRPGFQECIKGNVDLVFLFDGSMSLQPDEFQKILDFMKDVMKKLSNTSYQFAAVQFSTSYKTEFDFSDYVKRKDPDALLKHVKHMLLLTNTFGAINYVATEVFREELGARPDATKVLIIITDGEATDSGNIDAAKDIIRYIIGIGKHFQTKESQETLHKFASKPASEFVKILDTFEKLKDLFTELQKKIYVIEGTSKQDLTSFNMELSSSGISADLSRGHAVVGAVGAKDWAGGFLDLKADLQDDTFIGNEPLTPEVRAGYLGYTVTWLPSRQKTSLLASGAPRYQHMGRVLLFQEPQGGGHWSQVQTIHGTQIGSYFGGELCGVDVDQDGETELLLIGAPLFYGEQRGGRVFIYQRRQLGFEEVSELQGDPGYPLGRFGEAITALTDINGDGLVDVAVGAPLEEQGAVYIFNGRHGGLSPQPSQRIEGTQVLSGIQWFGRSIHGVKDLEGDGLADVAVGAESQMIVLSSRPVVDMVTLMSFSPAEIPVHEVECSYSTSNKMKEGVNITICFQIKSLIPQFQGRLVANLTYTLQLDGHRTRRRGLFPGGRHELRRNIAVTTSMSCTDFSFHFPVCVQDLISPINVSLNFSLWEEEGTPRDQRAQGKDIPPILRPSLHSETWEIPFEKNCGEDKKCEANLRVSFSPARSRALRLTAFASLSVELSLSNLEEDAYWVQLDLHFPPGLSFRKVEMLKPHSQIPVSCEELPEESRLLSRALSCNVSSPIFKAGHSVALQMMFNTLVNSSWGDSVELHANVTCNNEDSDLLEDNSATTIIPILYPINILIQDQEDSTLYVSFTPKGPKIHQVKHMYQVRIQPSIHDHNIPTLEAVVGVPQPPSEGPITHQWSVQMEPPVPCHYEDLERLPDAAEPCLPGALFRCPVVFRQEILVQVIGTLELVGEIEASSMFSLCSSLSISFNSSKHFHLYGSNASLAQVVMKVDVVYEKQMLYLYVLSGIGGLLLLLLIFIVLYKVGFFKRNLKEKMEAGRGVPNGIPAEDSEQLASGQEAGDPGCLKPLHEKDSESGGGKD
T1 sequence (P05107 23-769): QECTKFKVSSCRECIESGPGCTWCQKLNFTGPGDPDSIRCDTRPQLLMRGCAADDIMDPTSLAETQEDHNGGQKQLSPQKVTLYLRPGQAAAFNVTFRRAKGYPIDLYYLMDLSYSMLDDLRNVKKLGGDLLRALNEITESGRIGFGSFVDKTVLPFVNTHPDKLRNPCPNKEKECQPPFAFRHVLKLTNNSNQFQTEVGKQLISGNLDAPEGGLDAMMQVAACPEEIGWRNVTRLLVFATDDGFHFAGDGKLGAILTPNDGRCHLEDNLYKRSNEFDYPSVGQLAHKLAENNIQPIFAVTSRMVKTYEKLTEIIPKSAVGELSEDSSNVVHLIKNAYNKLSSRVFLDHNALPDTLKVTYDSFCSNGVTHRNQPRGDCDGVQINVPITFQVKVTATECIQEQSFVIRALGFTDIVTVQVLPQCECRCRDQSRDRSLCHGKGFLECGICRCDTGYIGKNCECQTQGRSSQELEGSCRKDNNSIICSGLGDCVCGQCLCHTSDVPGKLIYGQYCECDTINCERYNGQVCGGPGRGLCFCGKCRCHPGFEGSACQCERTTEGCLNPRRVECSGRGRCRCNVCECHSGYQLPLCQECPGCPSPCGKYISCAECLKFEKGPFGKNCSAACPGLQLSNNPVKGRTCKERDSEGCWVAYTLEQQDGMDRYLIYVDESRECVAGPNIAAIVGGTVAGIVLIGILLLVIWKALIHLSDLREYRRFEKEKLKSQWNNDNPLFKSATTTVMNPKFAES
Source text: Assay to Determine Inhibition of LFA-1 Binding to ICAM-1 Purpose of Assay: This assay protocol is designed to study the direct antagonism, by a test compound, of the interaction of the CAM, ICAM-1 with the Leukointegrin CD18/CD11a (LFA-1). […] After collection and neutralization of fractions from the TS2/4 column, samples are pooled and precleared with Protein G agarose. […] Wells are washed 3 times with Diluting Buffer. The bound LFA-1 is detected by the addition of a polyclonal antibody directed against a peptide corresponding to the CD18 cytoplasmic tail in a 1:100 dilution with Diluting Buffer and 1% BSA and allowed to incubate for 45 min at 37° C. Wells are washed 3 times with Diluting Buffer and the bound polyclonal antibody is detected by the addition of a 1:4000 dilution of horse radish peroxidase conjugated to goat immunoglobulin directed against rabbit immunoglobulin. […] The lack of the addition of LFA-1 to the binding assay is used as a background control for all samples. A dose-response curve is obtained for all test compounds. Results of these tests are reported as Kd's in μM.

[2] = tested on: cell bound form of LFA-1 (CD18, CD11a) with ICAM-1, SKW3 cells; experiment: Inhibition of SKW3 cell binding to ICAM-1 (PMA-stimulated); format: cell-based, human; conditions: Homo sapiens, read-out: Assay to Detect SKW3 Cells Binding to ICAM IC50
How it was run: (§1)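 Compound-treated, PMA-stimulated human T-cell line SKW3 (50 μg/mL PMA final) allowed to adhere for 2 h at 37° C to wells coated with sICAM-1 at 40 μg/mL or fibronectin at 100 μg/mL. After gentle RPMI wash, 50% inhibition concentration or range reported in μM.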

[3] = tested on: cell bound fibronectin receptor (VLA4) with fibronectin, SKW3 cells; experiment: Inhibition of SKW3 cell binding to fibronectin (selectivity counter-assay); format: cell-based, human; conditions: for IC50: Homo sapiens, read-out: Assay to Detect SKW3 Cells Binding to FIBRONECTIN IC50
How it was run: as §1

[4] = tested on: LFA-1 dependent aggregation of JY cells; experiment: JY cell homotypic aggregation assay (PMA-stimulated); format: cell-based, human; conditions: Homo sapiens
Source text: This aggregation can be enhanced by the addition of phorbol esters. […] Thus, the extent of LFA-1-dependent binding may be determined by assessing the extent of spontaneous or phorbol ester-dependent aggregate formation.
An agent which interferes with LFA-1 -dependent aggregation can be identified through the use of an assay capable of determining whether the agent interferes with either spontaneous, or phorbol ester-dependent aggregation of Epstein-Barr virus transformed cells. It is preferable to employ cells of the JY cell line (Terhost, L; et aL, Proc. Natl. Acad. Sci. USA, 1976, 73, 910) for the homotypic aggregation assay. This assay, capable of measuring LFA-1 dependent aggregation, may be employed to identify agents which act as antagonists to the LFA-1 dependent aggregation. Such agents may act by impairing the ability of either LFA-1 or ICAM-1 to mediate aggregation. Thus, agents may be examined to directly determine if they are antagonists of LFA-1 aggregation.
Description of Assay Protocol:
JY cells are cultured in RPMI 1640 culture medium supplemented with 10% fetal calf serum and 50 μg/mL gentamycin. The cells are cultured at 37° C. in an atmosphere of 5% CO2 at a relative humidity of 95%. JY cells used in this assay are washed two times with RPMI 1640 medium containing 5 mM HEPES buffer and resuspended to a concentration of 2·10^6 cells/mL. Added to flat-bottomed, 96-well microtiter plates are 50 μL of test compound diluted in complete medium, 50 μL of complete medium with or without purified monoclonal antibodies (negative and positive controls for inhibition, respectively), 50 μL of complete medium containing 200 ng/mL of the phorbol ester phorbol myristate acetate (PMA) and 100 μL of cells at a concentration of 2·10^6 cells/mL in complete medium. This yields a final concentration of […] PMA and 2·10^5 cells/well. Cells are allowed to settle spontaneously, and the degree of aggregation is scored at various time points. […] This procedure has been described by Rothlein, R. R.; et al., J. Exp. Med. 1986, 163, 1132-1149. This paper also reported that antibody to LFA-1 is capable of inhibiting the formation of aggregates.
Data are reported as the concentration or concentration range (in μM) at which 50% of binding is inhibited.

[5] = values marked e approximated from incomplete dose-response curve
[6] = SKW3, values marked c: no inhibition observed up to highest dose
[7] = SKW3, No inh = no inhibition observed up to highest dose, exact quantification not always possible due to intrinsic toxicity
[8] = values marked c: no inhibition observed up to highest dose
[9] = No inh = no inhibition observed up to highest dose, exact quantification not always possible due to intrinsic toxicity

| SMILES | Kd [1, 5] | IC50 [2, 6] | IC50 [3, 6] | IC50 [4] | Cellular Toxicity Assay MTT LD50 (SKW3 cells) | Kd [1] | IC50 ([2]; SKW3) | IC50 [3, 7] | Assay to Detect SKW3 Cells Binding to FIBRONECTIN IC50 [3, 8] | Assay to Detect SKW3 Cells Binding to FIBRONECTIN IC50 [3, 9] |
| --- | --- | --- | --- | --- | --- | --- | --- | --- | --- | --- |
| CN1C(=O)N(c2cc(Cl)cc(Cl)c2)C(=O)[C@@]1(C)Cc1cc(Br)cc(Br)c1 [Example 118] | 460 nM | > 100 µM | > 100 µM | 3400 nM | 200 to 400 µM |  |  |  |  |  |
| C[C@@]1(Cc2ccc(Br)cc2)C(=O)N(c2cc(Cl)cc(Cl)c2)C(=O)N1CCCN [Example 240] |  |  |  | 6300 nM | 11 to 23 µM | 110 nM | 1 to 3 µM | 13.4 µM |  |  |
| Cc1cc(Br)cc(C)c1C[C@]1(C)C(=O)N(c2cc(Cl)cc(Cl)c2)C(=O)N1C [Example 122] | 130 nM | 12 to 25 µM |  | 1800 nM | 200 to 400 µM |  |  |  | No inh^c |  |
| CC(=O)N1C(=O)N(c2cc(Cl)cc(Cl)c2)C(=O)[C@@]1(C)Cc1ccc(C#N)cc1 [Example 128] | 160 nM | 1.5 µM |  | 100 nM | 125 to 250 µM |  |  |  | No inh^c |  |
| CCC1(Cc2ccccc2)C(=O)N(c2cc(Cl)cc(Cl)c2)C(=O)N1C (centres unmarked) [Example 93] | 1270 nM | > 100 µM |  | 13000 nM | 100 to 200 µM |  |  |  | No inh^c |  |
| CC(C)N1C(=O)N(c2cc(Cl)cc(Cl)c2)C(=O)C1(C)Cc1ccc(Br)cc1 (centres unmarked) [Example 141] | 220 nM | 15 µM | > 15 µM | 100 nM | 300 µM |  |  |  |  |  |
| CC(C)(C)N1C(=O)N(c2cc(Cl)cc(Cl)c2)C(=O)C1(C)Cc1ccc(Br)cc1 (centres unmarked) [Example 177] | 250 nM | 7 to 14 µM |  | 3700 nM | 155 to 310 µM |  |  |  | No inh^c |  |
| CN1C(=O)N(c2cc(Cl)cc(Cl)c2)C(=O)C1(C)Cc1cccc(Br)c1 (centres unmarked) [Example 149] | 200 nM | 10 µM | > 10 µM | 2900 nM | 170 to 340 µM |  |  |  |  |  |
| CCC1(Cc2ccc(Br)cc2)C(=O)N(c2cc(Cl)cc(Cl)c2)C(=O)N1C (centres unmarked) [Example 172] | 170 nM | 1.8 µM |  | 700 nM | 165 µM |  |  |  | No inh^c |  |
| C[C@]1(Cc2ccc([N+](=O)[O-])cc2)NC(=O)N(c2cc(Cl)cc(Cl)c2)C1=O [Example 44] | 420 nM | 6 to 12 µM |  | 300 nM | 63 to 125 µM |  |  |  | No inh^c |  |
| C[C@@]1(Cc2ccc(Br)cc2)C(=O)N(c2cc(Cl)cc(Cl)c2)C(=O)N1Cc1cccnc1 [Example 111] | 190 nM | 3 µM |  | 75000 nM | 36 µM |  |  |  | No inh^c |  |
| COC(=O)c1ccc(CC2(C)C(=O)N(c3cc(Cl)cc(Cl)c3)C(=O)N2C)cc1 (centres unmarked) [Example 140] | 110 nM | 1.2 µM | > 10 µM | 200 nM | 180 to 360 µM |  |  |  |  |  |
| C[C@@]1(Cc2ccc(Br)cc2)C(=O)N(c2cc(Cl)cc(Cl)c2)C(=O)N1CCCCCC#N [Example 257] |  |  |  | 600 nM | 300 µM | 80 nM | 1.6 µM |  |  | No inh^c |
| CC(C)N1C(=O)N(c2cc(Cl)cc(Cl)c2)C(=O)[C@]1(C)Cc1ccc(Br)cc1 [Example 274] |  |  |  | 3000 nM | 200 to 300 µM | 140 nM | 25 to 50 µM | > 100 µM |  |  |
| CCCN1C(=O)N(c2cc(Cl)cc(Cl)c2)C(=O)C1(C)Cc1ccc(Br)cc1 (centres unmarked) [Example 137] | 40 nM | 1 to 3 µM |  | 400 nM | 200 to 400 µM |  |  |  | No inh^c |  |
| C[C@@]1(Cc2ccc(Br)cc2)C(=O)N(c2cc(Cl)cc(Cl)c2)C(=O)N1CCCCCNC(=N)N [Example 264] |  |  |  | 400 nM | 12 to 24 µM | 120 nM | 2 to 5 µM |  |  | No inh^c |
| CC(=O)CN1C(=O)N(c2cc(Cl)cc(Cl)c2)C(=O)[C@@]1(C)Cc1ccc(Br)cc1 [Example 117] | 1090 nM | 12 µM | 12 µM | 2200 nM | 12 µM |  |  |  |  |  |
| CCCC1(Cc2ccccc2)C(=O)N(c2cc(Cl)cc(Cl)c2)C(=O)N1C (centres unmarked) [Example 94] | 740 nM | 50 to 100 µM |  | 25000 nM | 200 µM |  |  |  | No inh^c |  |
| CN1C(=O)N(c2cc(Cl)cc(Cl)c2)C(=O)[C@@]1(C)Cc1ccc(-c2ccccn2)cc1 [Example 187] | 290 nM | 0.6 µM |  | 600 nM | 171 µM |  |  |  | No inh^c |  |
| C[C@@]1(Cc2ccc(Br)cc2)C(=O)N(c2cc(Cl)cc(Cl)c2)C(=O)N1CCCNC(=N)N [Example 262] |  |  |  | 400 nM | 25 to 75 µM | 80 nM | 1 to 2 µM |  |  | No inh^c |
| C[C@@]1(Cc2ccc(Br)cc2)C(=O)N(c2cc(Cl)cc(Cl)c2)C(=O)N1CCCCS(=O)(=O)O [Example 250] |  |  |  | 100 nM | 100 to 200 µM | 40 nM | < 1 µM |  |  | No inh^c |
| CC(C)N1C(=O)N(c2cc(Cl)cc(Cl)c2)C(=O)C1Cc1ccccc1 (centres unmarked) [Example 10] | 190 nM | 50 µM |  | 6300 nM | >500 µM |  |  |  | No inh^c |  |
